Measurements taken from patent US11207325B2, “Triazolopyrimidine compounds and uses thereof” (Novartis AG, priority 2014, dated 2021).

System: H3K27 methylation in G401 cell
Assay: ELISA (H3K27 methylation) assay
Assay type: cell-based
Conditions: Homo sapiens, G-401; ELISA Qualified assay (H3K27 methylation); read-out: (c) IC50 (μM), ELISA Qualified
From the text: ELISA (H3K27 Methylation) Assay

| SMILES | IC50 |
| --- | --- |
| Clc1ccncc1-c1cnc(NCc2cccc3c2CCO3)n2cnnc12 [Example 50, 8-(4-chloropyridin-3-yl)-N-((2,3-dihydrobenzofuran-4-yl)methyl)-[1,2,4]triazolo[4,3-c]pyrimidin-5-amine] | 0.12 µM |
| Cc1ccc(-c2cnc(NCc3cccc4c3CCO4)n3cnnc23)cn1 [Example 52] | 0.106 µM |
| CN(C)CCc1ccc(-c2cnc(NCc3cccc4c3CCO4)n3cnnc23)cn1 [Example 53, N-((2,3-dihydrobenzofuran-4-yl)methyl)-8-(6-(2-(dimethylamino)ethyl)pyridin-3-yl)-[1,2,4]triazolo[4,3-c]pyrimidin-5-amine] | 0.141 µM |
| COc1ncc(-c2cnc(NCc3cccc4c3CCO4)n3cnnc23)cn1 [Example 54, N-((2,3-dihydrobenzofuran-4-yl)methyl)-8-(2-methoxypyrimidin-5-yl)-[1,2,4]triazolo[4,3-c]pyrimidin-5-amine] | 0.144 µM |
| CN(C)C(=O)c1ccc(-c2cnc(NCc3c(F)ccc4c3CCO4)n3cnnc23)cc1 [Example 55, 4-(5-(((5-fluoro-2,3-dihydrobenzofuran-4-yl)methyl)amino)-[1,2,4]triazolo[4,3-c]pyrimidin-8-yl)-N,N-dimethylbenzamide] | 0.0131 µM |
| CS(=O)(=O)c1ccc(-c2cnc(NCc3c(F)ccc4c3CCO4)n3cnnc23)cn1 [Example 56, N-((5-fluoro-2,3-dihydrobenzofuran-4-yl)methyl)-8-(6-(methylsulfonyl)pyridin-3-yl)-[1,2,4]triazolo[4,3-c]pyrimidin-5-amine] | 0.0493 µM |
| Cc1ccc(-c2cnc(NCc3c(F)ccc4c3CCO4)n3cnnc23)cn1 [Example 57, N-((5-fluoro-2,3-dihydrobenzofuran-4-yl)methyl)-8-(6-methylpyridin-3-yl)-[1,2,4]triazolo[4,3-c]pyrimidin-5-amine] | 0.0334 µM |
| Nc1cc(F)c(-c2cnc(NCc3cccc4c3CCO4)n3cnnc23)cn1 [Example 58, 8-(6-amino-4-fluoropyridin-3-yl)-N-((2,3-dihydrobenzofuran-4-yl)methyl)-[1,2,4]triazolo[4,3-c]pyrimidin-5-amine] | 0.124 µM |
| Cc1noc(C)c1-c1cnc(NCc2cccc3c2CCO3)n2cnnc12 [Example 59, N-((2,3-dihydrobenzofuran-4-yl)methyl)-8-(3,5-dimethylisoxazol-4-yl)-[1,2,4]triazolo[4,3-c]pyrimidin-5-amine] | 0.086 µM |
| Cc1ncc(-c2cnc(NCc3cccc4c3CCO4)n3cnnc23)cn1 [Example 60, N-((2,3-dihydrobenzofuran-4-yl)methyl)-8-(2-methylpyrimidin-5-yl)-[1,2,4]triazolo[4,3-c]pyrimidin-5-amine] | 0.299 µM |
| CN(C)c1ccc(-c2cnc(NCc3cccc4c3CCO4)n3cnnc23)cn1 [Example 61, N-((2,3-dihydrobenzofuran-4-yl)methyl)-8-(6-(dimethylamino)pyridin-3-yl)-[1,2,4]triazolo[4,3-c]pyrimidin-5-amine] | 0.175 µM |
| N#Cc1ccc(-c2cnc(NCc3cccc4c3CCO4)n3cnnc23)cn1 [Example 62, 5-(5-(((2,3-dihydrobenzofuran-4-yl)methyl)amino)-[1,2,4]triazolo[4,3-c]pyrimidin-8-yl)picolinonitrile] | 0.339 µM |
| CCOc1ccc(-c2cnc(NCc3cccc4c3CCO4)n3cnnc23)cn1 [Example 63, N-((2,3-dihydrobenzofuran-4-yl)methyl)-8-(6-ethoxypyridin-3-yl)-[1,2,4]triazolo[4,3-c]pyrimidin-5-amine] | 0.198 µM |
| Cc1c(-c2cnc(NCc3cccc4c3CCO4)n3cnnc23)cnn1C [Example 64, N-((2,3-dihydrobenzofuran-4-yl)methyl)-8-(1,5-dimethyl-1H-pyrazol-4-yl)-[1,2,4]triazolo[4,3-c]pyrimidin-5-amine] | 0.0978 µM |
| c1cc(CNc2ncc(-c3ccc(C4CC4)nc3)c3nncn23)c2c(c1)OCC2 [Example 65, 8-(6-cyclopropylpyridin-3-yl)-N-((2,3-dihydrobenzofuran-4-yl)methyl)-[1,2,4]triazolo[4,3-c]pyrimidin-5-amine] | 0.11 µM |
| COCCn1nc(C)c(-c2cnc(NCc3cccc4c3CCO4)n3cnnc23)c1C [Example 66, N-((2,3-dihydrobenzofuran-4-yl)methyl)-8-(1-(2-methoxyethyl)-3,5-dimethyl-1H-pyrazol-4-yl)-[1,2,4]triazolo[4,3-c]pyrimidin-5-amine] | 0.0803 µM |
| Cc1nn(CCO)c(C)c1-c1cnc(NCc2cccc3c2CCO3)n2cnnc12 [Example 67, 2-(4-(5-(((2,3-dihydrobenzofuran-4-yl)methyl)amino)-[1,2,4]triazolo[4,3-c]pyrimidin-8-yl)-3,5-dimethyl-1H-pyrazol-1-yl)ethanol] | 0.521 µM |
| O=C(c1ccc(-c2cnc(NCc3cccc4c3CCO4)n3cnnc23)cn1)N1CCOCC1 [Example 68, (5-(5-(((2,3-dihydrobenzofuran-4-yl)methyl)amino)-[1,2,4]triazolo[4,3-c]pyrimidin-8-yl)pyridin-2-yl)(morpholino)methanone] | 0.378 µM |

| SMILES | IC50 |
| --- | --- |
| Cc1cc(-c2cnc(NCc3cccc4c3CCO4)n3cnnc23)cnc1S(C)(=O)=O [Example 70, N-((2,3-dihydrobenzofuran-4-yl)methyl)-8-(5-methyl-6-(methylsulfonyl)pyridin-3-yl)-[1,2,4]triazolo[4,3-c]pyrimidin-5-amine] | 0.0839 µM |
| Cc1noc(C)c1-c1cnc(NCc2c(F)ccc3c2CCO3)n2cnnc12 [Example 71, 8-(3,5-dimethylisoxazol-4-yl)-N-((5-fluoro-2,3-dihydrobenzofuran-4-yl)methyl)-[1,2,4]triazolo[4,3-c]pyrimidin-5-amine] | 0.0426 µM |
| CN1CCN(C(=O)c2ccc(-c3cnc(NCc4c(F)ccc5c4CCO5)n4cnnc34)cc2)CC1 [Example 72, (4-(5-(((5-fluoro-2,3-dihydrobenzofuran-4-yl)methyl)amino)-[1,2,4]triazolo[4,3-c]pyrimidin-8-yl)phenyl)(4-methylpiperazin-1-yl)methanone] | 0.0097 µM |
| Cc1cc(-c2cnc(NCc3cccc4c3CCO4)n3cnnc23)cnc1N1CCOCC1 [Example 73, N-((2,3-dihydrobenzofuran-4-yl)methyl)-8-(5-methyl-6-morpholinopyridin-3-yl)-[1,2,4]triazolo[4,3-c]pyrimidin-5-amine] | 0.332 µM |
| CS(=O)(=O)CCOc1ccc(-c2cnc(NCc3cccc4c3CCO4)n3cnnc23)cc1 [Example 75, N-((2,3-dihydrobenzofuran-4-yl)methyl)-8-(4-(2-(methylsulfonyl)ethoxy)phenyl)-[1,2,4]triazolo[4,3-c]pyrimidin-5-amine] | 0.298 µM |
| Nc1ccncc1-c1cnc(NCc2cccc3c2CCO3)n2cnnc12 [Example 76, 8-(4-aminopyridin-3-yl)-N-((2,3-dihydrobenzofuran-4-yl)methyl)-[1,2,4]triazolo[4,3-c]pyrimidin-5-amine] | 0.32 µM |
| c1cc(CNc2ncc(-c3cncc(N4CCNCC4)c3)c3nncn23)c2c(c1)OCC2 [Example 77, N-((2,3-dihydrobenzofuran-4-yl)methyl)-8-(5-(piperazin-1-yl)pyridin-3-yl)-[1,2,4]triazolo[4,3-c]pyrimidin-5-amine] | 0.581 µM |
| O=C(c1ccc(-c2cnc(NCc3cccc4c3CCO4)n3cnnc23)cn1)N1CCCC1 [Example 80, (5-(5-(((2,3-dihydrobenzofuran-4-yl)methyl)amino)-[1,2,4]triazolo[4,3-c]pyrimidin-8-yl)pyridin-2-yl)(pyrrolidin-1-yl)methanone] | 0.132 µM |
| c1cc(CNc2ncc(-c3ccc(N4CCSCC4)nc3)c3nncn23)c2c(c1)OCC2 [Example 81, N-((2,3-dihydrobenzofuran-4-yl)methyl)-8-(6-thiomorpholinopyridin-3-yl)-[1,2,4]triazolo[4,3-c]pyrimidin-5-amine] | 0.155 µM |
| Cc1nn(C(C)C)cc1-c1cnc(NCc2cccc3c2CCO3)n2cnnc12 [Example 82, N-((2,3-dihydrobenzofuran-4-yl)methyl)-8-(1-isopropyl-3-methyl-1H-pyrazol-4-yl)-[1,2,4]triazolo[4,3-c]pyrimidin-5-amine] | 0.107 µM |
| COCc1ncc(-c2cnc(NCc3cccc4c3CCO4)n3cnnc23)cc1C [Example 83, N-((2,3-dihydrobenzofuran-4-yl)methyl)-8-(6-(methoxymethyl)-5-methylpyridin-3-yl)-[1,2,4]triazolo[4,3-c]pyrimidin-5-amine] | 0.14 µM |
| CC(O)c1ccc(-c2cnc(NCc3cccc4c3CCO4)n3cnnc23)cn1 (centres unmarked) [Example 84, 1-(5-(5-(((2,3-dihydrobenzofuran-4-yl)methyl)amino)-[1,2,4]triazolo[4,3-c]pyrimidin-8-yl)pyridin-2-yl)ethanol] | 0.148 µM |
| Fc1ccncc1-c1cnc(NCc2cccc3c2CCO3)n2cnnc12 [Example 85, N-((2,3-dihydrobenzofuran-4-yl)methyl)-8-(4-fluoropyridin-3-yl)-[1,2,4]triazolo[4,3-c]pyrimidin-5-amine] | 0.0333 µM |
| COCCc1ccc(-c2cnc(NCc3cccc4c3CCO4)n3cnnc23)cn1 [Example 86, N-((2,3-dihydrobenzofuran-4-yl)methyl)-8-(6-(2-methoxyethyl)pyridin-3-yl)-[1,2,4]triazolo[4,3-c]pyrimidin-5-amine] | 0.0758 µM |
| O=C1CCCN1c1cncc(-c2cnc(NCc3cccc4c3CCO4)n3cnnc23)c1 [Example 87, 1-(5-(5-(((2,3-dihydrobenzofuran-4-yl)methyl)amino)-[1,2,4]triazolo[4,3-c]pyrimidin-8-yl)pyridin-3-yl)pyrrolidin-2-one] | 0.707 µM |
| CN(C)c1ncc(-c2cnc(NCc3cccc4c3CCO4)n3cnnc23)cn1 [Example 88, N-((2,3-dihydrobenzofuran-4-yl)methyl)-8-(2-(dimethylamino)pyrimidin-5-yl)-[1,2,4]triazolo[4,3-c]pyrimidin-5-amine] | 0.238 µM |
| CN(C)CCc1cccc(-c2cnc(NCc3cccc4c3CCO4)n3cnnc23)c1 [Example 89, N-((2,3-dihydrobenzofuran-4-yl)methyl)-8-(3-(2-(dimethylamino)ethyl)phenyl)-[1,2,4]triazolo[4,3-c]pyrimidin-5-amine] | 0.101 µM |
